Values quoted from earlier work as cited in paper PMC6282790, “Incorporating physiologically relevant mobile phases in micellar liquid chromatography for the prediction of human intestinal absorption” (Biomedical Chromatography, 2018).
Read-outs that look alike come from different tables or passages of the source. Values belong to the molecule of their own block, whether it stands above or below them.

Tests used:
[1] = human intestinal absorption
[2] = design: method as in https://pubchem.ncbi.nlm.nih.gov/, December 2014; unit not given beside the values; conditions: literature values; ref https://pubchem.ncbi.nlm.nih.gov/, December 2014
[3] = in 0.15 M NaCl
[4] = ref Castillo‐Garit et al. (2014)

Compound: CC(=O)Nc1ccc(O)cc1 [Acetaminophen, acetaminophen]
Experimental. %HIA [1, 4]: 100% | PSA [2]: 49.3

Compound: CC(=O)Oc1ccccc1C(=O)O [Acetylsalicylic acid, acetyl salicylic acid]
Experimental. %HIA [1, 4]: 82% | PSA [2]: 63.6

Compound: NC(=O)N1c2ccccc2C=Cc2ccccc21 [Carbamazepine, carbamazepine]
Experimental. %HIA ([1]; ref Dressman, Amidon, & Fleisher (1985), Varma, Sateesh, & Panchagnula (2005)): 84% | PSA [2]: 46.3

Compound: CN/C(=N/CCSCc1nc[nH]c1C)NC#N [Cimetidine, cimetidine]
Experimental. %HIA ([1]; ref Castillo‐Garit et al. (2014), Linnankoski, Mäkelä, Ranta, Urtti, & Yliperttula (2006)): 68% | PSA [2]: 88.89

Compound: O=C(O)Cc1ccccc1Nc1c(Cl)cccc1Cl [Diclofenac, diclofenac]
Experimental. %HIA ([1]; ref Veber et al. (2002)): 54%

Compound: CC(C(=O)O)c1cccc(Oc2ccccc2)c1 (stereo not shown) [Fenoprofen, fenoprofen]
Experimental. %HIA ([1]; ref Hou, Wang, Zhang, & Xu (2007)): 85% | PSA [2]: 46.5

Compound: OC(Cn1cncn1)(Cn1cncn1)c1ccc(F)cc1F [Fluconazole, fluconazole]
PSA [2]: 81.6

Compound: CC(C(=O)O)c1ccc(-c2ccccc2)c(F)c1 (stereo not shown) [Flurbiprofen, flurbiprofen]
Experimental. %HIA ([1]; ref Raevsky (2004)): 92% | PSA [2]: 37.3

Compound: CC(C)Cc1ccc(C(C)C(=O)O)cc1 (stereo not shown) [Ibuprofen, ibuprofen]
Experimental. %HIA ([1]; ref Newby et al. (2015)): 98% | PSA [2]: 37.3

Compound: CC(C(=O)O)c1cccc(C(=O)c2ccccc2)c1 (stereo not shown) [Ketoprofen, ketoprofen]
PSA [2]: 54.4

Compound: C[C@H](CCC(=O)NCC(=O)[O-])[C@H]1CC[C@H]2[C@@H]3CC[C@@H]4C[C@H](O)CC[C@]4(C)[C@H]3C[C@H](O)[C@]12C.[Na+] [NaGDC, sodium glycodeoxycholate]
CMC ([3]; ref Natalini et al., 2014): 2.2 mM

Compound: C[C@H](CCC(=O)NCCS(=O)(=O)O)[C@H]1CC[C@H]2[C@@H]3[C@H](O)C[C@@H]4C[C@H](O)CC[C@]4(C)[C@H]3C[C@H](O)[C@]12C [NaTC, sodium taurocholate]
CMC ([3]; ref Natalini et al., 2014): 4 mM

Compound: O=C(O)c1cccnc1 [Nicotinic acid, nicotinic acid]
Experimental. %HIA ([1]; ref Newby et al. (2015)): 94%

Compound: Cn1c(=O)c2[nH]cnc2n(C)c1=O [Theophylline, theophylline]
Experimental. %HIA ([1]; ref Kansy, Senner, & Gubernator (1998)): 98% | PSA [2]: 69.3

The remaining lines, values ahead:

CMC ([3]; ref Reis et al., 2004): 7.5 mM
Compound: C[C@H](CCC(=O)[O-])[C@H]1CC[C@H]2[C@@H]3[C@H](O)C[C@@H]4C[C@H](O)CC[C@]4(C)[C@H]3C[C@H](O)[C@]12C.[Na+] [NaC, sodium cholate]

CMC ([3]; ref Natalini et al., 2014): 9 mM
Compound: C[C@H](CCC(=O)NCC(=O)[O-])[C@H]1CC[C@H]2[C@@H]3[C@H](O)C[C@@H]4C[C@H](O)CC[C@]4(C)[C@H]3C[C@H](O)[C@]12C.[Na+] [NaGC, sodium glycocholate]

CMC ([3]; ref Natalini et al., 2014): 2.4 mM
Compound: C[C@H](CCC(=O)NCCS(=O)(=O)[O-])[C@H]1CC[C@H]2[C@@H]3CC[C@@H]4C[C@H](O)CC[C@]4(C)[C@H]3C[C@H](O)[C@]12C.[Na+] [NaTDC, sodium taurodeoxycholate]

Experimental. %HIA [1, 4]: 94%
Compound: COc1ccc2cc([C@H](C)C(=O)O)ccc2c1 [Naproxen, naproxen]

Experimental. %HIA ([1]; ref Hou et al. (2007), Veber et al. (2002)): 94% | PSA [2]: 40.6
Compound: CCCCC1C(=O)N(c2ccccc2)N(c2ccccc2)C1=O [Phenylbutazone, phenylbutazone]

Experimental. %HIA ([1]; ref Raevsky (2004)): 99% | PSA [2]: 57.5
Compound: O=C(O)c1ccccc1O [Salicylic acid, salicylic acid]

Experimental. %HIA ([1]; ref Grès et al. (1998)): 25% | PSA [2]: 72.7
Compound: CC(C)(C)NCC(O)c1cc(O)cc(O)c1 (stereo not shown) [Terbutaline, terbutaline]

Experimental. %HIA ([1]; ref Newby et al. (2015)): 92% | PSA [2]: 57.4
Compound: CN(C)CCc1c[nH]c2ccc(C[C@H]3COC(=O)N3)cc12 [Zolmitriptan, zolmitriptan]
